Measurements: PubChem BioAssay AID200 (DTP/NCI, 2004)
“And” between values parts separate entries of the source, which are not always exact repeats. Equal entries are not always repeated. Inconclusive results and toxic doses are left out.

Test system: B6C3F1 mice, B16 melanoma ip, median survival T/C
Assay: NCI In Vivo Anticancer Drug Screen. Data for tumor model B16 Melanoma (intraperitoneal) in B6C3F1 mice
Settings: endpoint: median survival time, higher = longer survival
Outline: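 Readout: survival or tumor size in treated mice relative to vehicle controls (T/C). Model uses transplantable tumors grown in mice.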

[1] = dose: 25.0 mg/kg/injection, schedule: Q01DX009 (ip), vehicle: Klucel (hydroxypropylcellulose) (HPC)
[2] = dose: 50.0 mg/kg/injection, schedule: Q01DX009 (ip), vehicle: Klucel (hydroxypropylcellulose) (HPC)
[3] = dose: 200.0 mg/kg/injection, schedule: Q01DX009 (ip), vehicle: saline

## O=c1[nH]cccc1O
dose: 16.0 mg/kg/injection, schedule: Q01DX009 (ip), vehicle: saline with Tween-80
  T/C: 101 % of control
dose: 32.0 mg/kg/injection, schedule: Q01DX009 (ip), vehicle: saline with Tween-80
  T/C: 92 % of control
dose: 64.0 mg/kg/injection, schedule: Q01DX009 (ip), vehicle: saline with Tween-80
  T/C: 93 % of control
dose: 128.0 mg/kg/injection, schedule: Q01DX009 (ip), vehicle: saline with Tween-80
  T/C: 105 % of control
dose: 256.0 mg/kg/injection, schedule: Q01DX009 (ip), vehicle: saline with Tween-80
  T/C: 99 % of control

## COc1ccc2c(c1OC(C)=O)-c1cc(O)cc3c1C(C2)N(C(=O)CN(CCCl)CCCl)CC3 (stereo not drawn)
dose: 3.12 mg/kg/injection, schedule: Q01DX009 (ip), vehicle: saline with Tween-80
  T/C: 164 % of control
dose: 6.25 mg/kg/injection, schedule: Q01DX009 (ip), vehicle: saline with Tween-80
  T/C: 153 % of control
dose: 12.5 mg/kg/injection, schedule: Q01DX009 (ip), vehicle: saline with Tween-80
  T/C: 207 % of control

## C/C(=N\NC(=S)N1CCN(c2ccccn2)CC1)c1ccccn1
dose: 6.25 mg/kg/injection, schedule: Q01DX009 (ip), vehicle: water
  T/C: 99 % of control
dose: 12.5 mg/kg/injection, schedule: Q01DX009 (ip), vehicle: water
  T/C: 99 % of control
dose: 25.0 mg/kg/injection, schedule: Q01DX009 (ip), vehicle: water
  T/C: 111 % of control

## Cc1cc2c(c3oc(C4(C)OC4C4OC4C)cc(=O)c13)C(=O)c1c(O)c(C3CC(C)(N(C)C)C(O)C(C)O3)cc(C3CC(N(C)C)C(O)C(C)O3)c1C2=O (stereo not drawn)
dose: 2.0 micrograms/kg/injection, schedule: Q01DX009 (ip), vehicle: Klucel (hydroxypropylcellulose) (HPC)
  T/C: 123 % of control
dose: 4.0 micrograms/kg/injection, schedule: Q01DX009 (ip), vehicle: Klucel (hydroxypropylcellulose) (HPC)
  T/C: 118 % of control

## CCN1/C(=C/C(C)=C/c2sc3ccc4ccccc4c3[n+]2CC)Sc2ccc3ccccc3c21
dose: 0.02 mg/kg/injection, schedule: Q01DX009 (ip), vehicle: saline with Tween-80
  T/C: 95 % of control
dose: 0.05 mg/kg/injection, schedule: Q01DX009 (ip), vehicle: saline with Tween-80
  T/C: 106 % of control

## O=C1CSC(c2cccs2)N1c1nncs1 (stereo not drawn)
[1]
  T/C: 102 % of control
[2]
  T/C: 92 % of control
dose: 100.0 mg/kg/injection, schedule: Q01DX009 (ip), vehicle: Klucel (hydroxypropylcellulose) (HPC)
  T/C: 92 % of control
dose: 200.0 mg/kg/injection, schedule: Q01DX009 (ip), vehicle: Klucel (hydroxypropylcellulose) (HPC)
  T/C: 97 % of control

## CC(=O)O[C@H]1C(=O)[C@@]2(C)[C@H]([C@H](OC(=O)c3ccccc3)[C@]3(O)C[C@H](OC(=O)[C@H](O)[C@@H](NC(=O)c4ccccc4)c4ccccc4)C(C)=C1C3(C)C)[C@]1(OC(C)=O)CO[C@@H]1C[C@@H]2O
dose: 1.25 mg/kg/injection, schedule: Q01DX008 (ip), vehicle: Klucel (hydroxypropylcellulose) (HPC)
  T/C: 187 % of control
dose: 1.25 mg/kg/injection, schedule: Q01DX009 (ip), vehicle: Klucel (hydroxypropylcellulose) (HPC)
  T/C: 155 % of control and 171 % of control
dose: 1.88 mg/kg/injection, schedule: Q01DX009 (ip), vehicle: Klucel (hydroxypropylcellulose) (HPC)
  T/C: 213 % of control
dose: 2.5 mg/kg/injection, schedule: Q01DX008 (ip), vehicle: Klucel (hydroxypropylcellulose) (HPC)
  T/C: 221 % of control
dose: 3.75 mg/kg/injection, schedule: Q01DX009 (ip), vehicle: Klucel (hydroxypropylcellulose) (HPC)
  T/C: 225 % of control
dose: 5.0 mg/kg/injection, schedule: Q01DX008 (ip), vehicle: Klucel (hydroxypropylcellulose) (HPC)
  T/C: 232 % of control
dose: 6.25 mg/kg/injection, schedule: Q04DX003 (ip), vehicle: Klucel (hydroxypropylcellulose) (HPC)
  T/C: 174 % of control and 186 % of control
dose: 7.5 mg/kg/injection, schedule: Q01DX009 (ip), vehicle: Klucel (hydroxypropylcellulose) (HPC)
  T/C: 327 % of control
dose: 10.0 mg/kg/injection, schedule: Q01DX008 (ip), vehicle: Klucel (hydroxypropylcellulose) (HPC)
  T/C: 112 % of control
dose: 10.0 mg/kg/injection, schedule: Q01DX009 (ip), vehicle: other
  T/C: 154 % of control and 175 % of control
dose: 12.5 mg/kg/injection, schedule: Q04DX003 (ip), vehicle: Klucel (hydroxypropylcellulose) (HPC)
  T/C: 201 % of control and 231 % of control
dose: 20.0 mg/kg/injection, schedule: Q01DX008 (ip), vehicle: Klucel (hydroxypropylcellulose) (HPC)
  T/C: 92 % of control
dose: 25.0 mg/kg/injection, schedule: Q04DX003 (ip), vehicle: Klucel (hydroxypropylcellulose) (HPC)
  T/C: 237 % of control and 254 % of control
dose: 30.0 mg/kg/injection, schedule: Q01DX009 (ip), vehicle: Klucel (hydroxypropylcellulose) (HPC)
  T/C: 89 % of control
dose: 50.0 mg/kg/injection, schedule: Q04DX003 (ip), vehicle: Klucel (hydroxypropylcellulose) (HPC)
  T/C: 169 % of control and 222 % of control
dose: 100.0 mg/kg/injection, schedule: Q04DX003 (ip), vehicle: Klucel (hydroxypropylcellulose) (HPC)
  T/C: 118 % of control

## c1cc(-c2cc3ccc(C4=NCCN4)cc3[nH]2)ccc1C1=NCCN1
dose: 3.12 mg/kg/injection, schedule: Q01DX009 (ip), vehicle: saline
  T/C: 111 % of control
dose: 3.12 mg/kg/injection, schedule: Q01DX009 (ip), vehicle: suspension in saline
  T/C: 104 % of control
dose: 6.25 mg/kg/injection, schedule: Q01DX009 (ip), vehicle: saline
  T/C: 108 % of control
dose: 6.25 mg/kg/injection, schedule: Q01DX009 (ip), vehicle: suspension in saline
  T/C: 94 % of control
dose: 12.5 mg/kg/injection, schedule: Q01DX009 (ip), vehicle: saline
  T/C: 100 % of control
dose: 12.5 mg/kg/injection, schedule: Q01DX009 (ip), vehicle: suspension in saline
  T/C: 96 % of control
dose: 25.0 mg/kg/injection, schedule: Q01DX009 (ip), vehicle: saline
  T/C: 95 % of control

## C1CN1P1(N2CC2)=NP(N2CC2)(N2CC2)=NP(N2CC2)(N2CC2)=NP(N2CC2)(N2CC2)=N1
dose: 1.0 mg/kg/injection, schedule: Q01DX009 (ip), vehicle: saline
  T/C: 95 % of control and 98 % of control
dose: 1.0 mg/kg/injection, schedule: Q02DX009 (ip), vehicle: saline
  T/C: 91 % of control and 97 % of control
dose: 2.0 mg/kg/injection, schedule: Q01DX009 (ip), vehicle: saline
  T/C: 92 % of control and 96 % of control
dose: 2.0 mg/kg/injection, schedule: Q02DX009 (ip), vehicle: saline
  T/C: 91 % of control and 97 % of control
dose: 4.0 mg/kg/injection, schedule: Q01DX009 (ip), vehicle: saline
  T/C: 109 % of control and 95 % of control
dose: 4.0 mg/kg/injection, schedule: Q02DX009 (ip), vehicle: saline
  T/C: 91 % of control and 98 % of control
dose: 8.0 mg/kg/injection, schedule: Q01DX009 (ip), vehicle: saline
  T/C: 89 % of control and 107 % of control
dose: 8.0 mg/kg/injection, schedule: Q02DX009 (ip), vehicle: saline
  T/C: 90 % of control and 97 % of control
dose: 16.0 mg/kg/injection, schedule: Q01DX009 (ip), vehicle: saline
  T/C: 91 % of control and 100 % of control
dose: 16.0 mg/kg/injection, schedule: Q02DX009 (ip), vehicle: saline
  T/C: 112 % of control
dose: 32.0 mg/kg/injection, schedule: Q01DX009 (ip), vehicle: saline
  T/C: 109 % of control and 91 % of control
dose: 32.0 mg/kg/injection, schedule: Q02DX009 (ip), vehicle: saline
  T/C: 88 % of control and 103 % of control
dose: 64.0 mg/kg/injection, schedule: Q01DX009 (ip), vehicle: saline
  T/C: 109 % of control and 90 % of control
dose: 64.0 mg/kg/injection, schedule: Q02DX009 (ip), vehicle: saline
  T/C: 94 % of control and 100 % of control

## NC(CO)(CO)CO
[3]
  T/C: 104 % of control
dose: 200.0 mg/kg/injection, schedule: Q12HX018 (ip), vehicle: saline
  T/C: 102 % of control
dose: 400.0 mg/kg/injection, schedule: Q01DX009 (ip), vehicle: saline
  T/C: 102 % of control
dose: 400.0 mg/kg/injection, schedule: Q12HX018 (ip), vehicle: saline
  T/C: 102 % of control
dose: 800.0 mg/kg/injection, schedule: Q01DX009 (ip), vehicle: saline
  T/C: 98 % of control
dose: 800.0 mg/kg/injection, schedule: Q12HX018 (ip), vehicle: saline
  T/C: 106 % of control
dose: 1600.0 mg/kg/injection, schedule: Q01DX009 (ip), vehicle: saline
  T/C: 98 % of control
dose: 1600.0 mg/kg/injection, schedule: Q12HX018 (ip), vehicle: saline
  T/C: 101 % of control

## NC(Cc1ccc(O)c(Cl)c1)C(=O)O (stereo not drawn)
dose: 100.0 mg/kg/injection, schedule: Q01DX009 (ip), vehicle: saline
  T/C: 93 % of control
[3]
  T/C: 98 % of control

## CSc1cc(=O)n2c3ccccc3c3ccnc1c32
dose: 0.62 mg/kg/injection, schedule: Q01DX009 (ip), vehicle: saline with Tween-80
  T/C: 96 % of control
dose: 1.25 mg/kg/injection, schedule: Q01DX009 (ip), vehicle: saline with Tween-80
  T/C: 101 % of control
dose: 2.5 mg/kg/injection, schedule: Q01DX009 (ip), vehicle: saline with Tween-80
  T/C: 105 % of control
dose: 5.0 mg/kg/injection, schedule: Q01DX009 (ip), vehicle: saline with Tween-80
  T/C: 109 % of control
dose: 10.0 mg/kg/injection, schedule: Q01DX009 (ip), vehicle: saline with Tween-80
  T/C: 114 % of control

## CC(C)(C)OC(=O)NCCCCC(NC(=O)OCC1c2ccccc2-c2ccccc21)C(=O)O (stereo not drawn)
[1]
  T/C: 100 % of control
[2]
  T/C: 95 % of control
